According to patent US10801035B2, “Plants having increased tolerance to herbicides” (BASF SE, priority 2011, dated 2020):

Assays:
Synechococcus HPPD = assay: HPPD activity assay, Synechococcus HPPD; type: biochemical; conditions: normalized on Hordeum HPPD
Method: HPPD produces homogentisic acid and CO2 from 4-hydroxyphenylpyruvate (4-HPP) and O2. The activity assay for HPPD is based on the analysis of homogentisic acid by reversed phase HPLC.
The assay mixture can contain 150 mM potassium phosphate buffer pH 7.0, 50 mM L-ascorbic acid, 1 μM FeSO4 and 7 μg of purified enzyme in a total volume of 1 ml. Inhibitors are dissolved in DMSO (dimethylsulfoxide) to a concentration of 20 mM or 0.5 mM, respectively. From this stock solution serial five-fold dilutions are prepared in DMSO, which are used in the assay. The respective inhibitor solution accounts for 1% of the assay volume. […]
Activities are normalized by setting the uninhibited enzyme activity to 100%. […] values are calculated using non-linear regression. […]
Inhibitors are dissolved in DMSO (dimethylsulfoxide) to a concentration of 0.5 mM. […] IC50 values are calculated using non-linear regression.
Using methods which are described in the above examples or well known in the art, purified, recombinant wildtype HPPD enzymes are characterized with respect to their kinetic properties and sensitivity towards HPPD inhibiting herbicides. Apparent michaelis constants (Km) and maximal reaction velocities (Vmax) are calculated by non-linear regression with the software GraphPad Prism 5 (GraphPad Software, La Jolla, USA) using a substrate inhibition model. […]

[1] = test system: transgenic soybean plants (T0 cuttings) expressing heterologous HPPD; assay: Greenhouse testing of transgenic soybean plants (T0 cuttings); type: in vivo, Glycine max; set-up: key: % injury: 0% = no injury, 100% = complete death; conditions: two weeks after treatment
Method: Transgenic plants expressing heterologous HPPD or HST enzymes are tested for tolerance against coumarone-derivative herbicides in greenhouse experiments.
For post emergence treatment, the test plants are first grown to a height of 3 to 15 cm, depending on the plant habit, and only then treated with the herbicides. For this purpose, the test plants are either sown directly and grown in the same containers, or they are first grown separately and transplanted into the test containers a few days prior to treatment.
For testing of T0 plants, cuttings can be used. In the case of soybean plants, an optimal shoot for cutting is about 7.5 to 10 cm tall, with at least two nodes present. Each cutting is taken from the original transformant (mother plant) and dipped into rooting hormone powder (indole-3-butyric acid, IBA). The cutting is then placed in oasis wedges inside a bio-dome. Wild type cuttings are also taken simultaneously to serve as controls. The cuttings are kept in the biodome for 5-7 days and then transplanted to pots and then acclimated in the growth chamber for two more days. Subsequently, the cuttings are transferred to the greenhouse, acclimated for approximately 4 days, and then subjected to spray tests as indicated.
Depending on the species, the plants are kept at 10-25° C. or 20-35° C. The test period extends over 3 weeks. During this time, the plants are tended and their response to the individual treatments is evaluated. Herbicide injury evaluations are taken at 2 and 3 weeks after treatment. Plant injury is rated on a scale of 0 to 9, 0 being no injury and 9 being complete death. Tolerance to coumarone-derivative herbicides can also be assessed in Arabidopsis. In this case transgenic Arabidopsis thaliana plants are assayed for improved tolerance to coumarone-derivative herbicides in 48-well plates. Seeds are surface sterilized by stirring for 5 min in ethanol+water (70+30 by volume), rinsing one time with ethanol+water (70+30 by volume) and two times with a sterile, deionized water. The seeds are resuspended in 0.1% agar dissolved in water (w/v). Four to five seeds per well are plated on solid nutrient medium consisting of half-strength Murashige Skoog nutrient solution, pH 5.8 (Murashige and Skoog (1962) Physiologia Plantarum 15: 473-497). Compounds are dissolved in dimethylsulfoxid (DMSO) and added to the medium prior solidification (final DMSO concentration 0.1%). Multi well plates are incubated in a growth chamber at 22° C., 75% relative humidity and 110 μmol Phot * m-2 * s-1 with 14: 10 h light: dark photoperiod. Seven to ten days after seeding growth inhibition is evaluated by comparison to wild type plants. Tolerance factor is calculated by dividing the plant growth IC50 value of transgenic plants containing a HPPD and/or HST sequence by that of wildtype plants. Additionally, T1 and T2 transgenic Arabidopsis plants can be tested for improved tolerance to coumarone-derivative herbicides in a greenhouse studies. Herbicide injury scoring is done 2-3 weeks after treatment and is rated on a scale of 0 to 100%, 0% being no injury and 100% being complete death.

`CC1=NOC(c2c(Cl)ccc(C3=C(O)c4ncccc4N(CC(F)F)S3(=O)=O)c2Cl)C1` (stereo not shown) [Inhibitor 1, 3-[2,4-dichloro-3-(3-methyl-4,5-dihydroisoxazol-5-yl)phenyl]-1-(2,2-difluoroethyl)-2,2-dioxo-pyrido[3,2-c]thiazin-4-ol] was tested, and the “Normalized tolerance index (TI)” value (Synechococcus HPPD) was 2.2, the Injury evaluation ([1]; event AV4283 (probably Synechococcus HPPD**, marked: tested at a half rate), dose line 62 g/ha) was 20 and the Injury evaluation ([1]; event AV4283 (probably Synechococcus HPPD**, marked: tested at a half rate), dose line 125 g/ha) was 20. It also gave an Injury evaluation ([1]; event AV4283 (probably Synechococcus HPPD**, marked: tested at a half rate), dose line 250 g/ha) of 20, an Injury evaluation ([1]; event AV4287 (marked: tested at a half rate), dose line 62 g/ha) of 0 and an Injury evaluation ([1]; event AV4287 (marked: tested at a half rate), dose line 125 g/ha) of 0. It also gave an Injury evaluation ([1]; event AV4287 (marked: tested at a half rate), dose line 250 g/ha) of 0, an Injury evaluation ([1]; event AV4553 (Hordeum HPPD), dose 62 g/ha) of 0 and an Injury evaluation ([1]; event AV4553 (Hordeum HPPD), dose 125 g/ha) of 10. The Injury evaluation ([1]; event AV4553 (Hordeum HPPD), dose 250 g/ha) was 10, the Injury evaluation ([1]; event HT1833 (Arabidopsis HPPD_M335H, plastidic), dose 62 g/ha) was 0 and the Injury evaluation ([1]; event HT1833 (Arabidopsis HPPD_M335H, plastidic), dose 125 g/ha) was 5. It also gave an Injury evaluation ([1]; event HT1833 (Arabidopsis HPPD_M335H, plastidic), dose 250 g/ha) of 5, an Injury evaluation ([1]; event LG5831** (Arabidopsis HPPD_M335H, plastidic), marked: tested at a half rate, dose line 62 g/ha) of 0 and an Injury evaluation ([1]; event LG5831** (Arabidopsis HPPD_M335H, plastidic), marked: tested at a half rate, dose line 125 g/ha) of 0. For the same molecule, the Injury evaluation ([1]; event LG5831** (Arabidopsis HPPD_M335H, plastidic), marked: tested at a half rate, dose line 250 g/ha) was 0, the Injury evaluation ([1]; event LG6156 (Synechocystis HPPD), dose 62 g/ha) was 0 and the Injury evaluation ([1]; event LG6156 (Synechocystis HPPD), dose 125 g/ha) was 10. It also gave an Injury evaluation ([1]; event LG6156 (Synechocystis HPPD), dose 250 g/ha) of 10, an Injury evaluation ([1]; event LJ383, dose 62 g/ha) of 10 and an Injury evaluation ([1]; event LJ383, dose 125 g/ha) of 10. It also gave an Injury evaluation ([1]; event LJ383, dose 250 g/ha) of 20, an Injury evaluation ([1]; event LJ387 (Hordeum HPPD), dose 62 g/ha) of 0 and an Injury evaluation ([1]; event LJ387 (Hordeum HPPD), dose 125 g/ha) of 0. For the same molecule, the Injury evaluation ([1]; event LJ387 (Hordeum HPPD), dose 250 g/ha) was 0, the Injury evaluation ([1]; event LJ409, dose 62 g/ha) was 10 and the Injury evaluation ([1]; event LJ409, dose 125 g/ha) was 10. For the same molecule, the Injury evaluation ([1]; event LJ409, dose 250 g/ha) was 15.
